# Measurements as given in publication PMC6309732 (ChemMedChem, 2016).
# What was measured:
# [1] = biological target: HIV-1 RT-associated RNA dependent DNA polymerase (Human immunodeficiency virus type 1 group M subtype B, UniProt P04585); assay: biochemical
# [2] = biological target: T1, HIV-1 RT-associated RNase H (Human immunodeficiency virus type 1 group M subtype B, UniProt P04585); assay: HIV-1 DNA polymerase-independent RNase H activity determination; type: biochemical
# HIV-1 RT heterodimer = HIV-1 RT heterodimer (Human immunodeficiency virus type 1 group M subtype B, UniProt P04585); assay: Differential Scanning Fluorimetry; type: binding; conditions: 10 μM inhibitor, 300 nM HIV-1 RT; data not shown
# [3] = Cytotoxicity in mock-infected MT-4 cells; type: cell-based; conditions: human
# [4] = biological target: T1, HIV-1 RT-associated RNase H; assay: RNase H assay with modified order of addition; type: biochemical; conditions: for Fold increase of IC50 versus the regular assay: inhibitor added after duplex substrate vs regular assay
# HIV-1 (IIIB strain) = assay: Antiviral assay, HIV-1; type: cell-based; conditions: acutely infected MT-4 cells; at concentrations less than cytotoxic
# HIV-2 (ROD strain) = assay: Antiviral assay, HIV-2; type: cell-based; conditions: acutely infected MT-4 cells; at concentrations less than cytotoxic
SMILES,IC50 [1] [µM],IC50 [2] [µM],further results
"O=C(Nc1sc2c(c1C(=O)Nc1ccccn1)CCCCC2)c1cccs1 [Compound 34, N-(Pyridin-2-yl)-2-(thiophene-2-carboxamido)-5,6,7,8-tetrahydro-4H-cyclohepta[b]thiophene-3-carboxamide]",> 50,10.4 ± 1.96,–
"O=C(Nc1sc2c(c1C(=O)Nc1ccccn1)CCCCC2)c1ccccc1[N+](=O)[O-] [Compound 24, 2-(2-Nitrobenzamido)-N-(pyridin-2-yl)-5,6,7,8-tetrahydro-4H-cyclohepta[b]thiophene-3-carboxamide]",–,53.5 ± 1.7,–
"COc1ccc(C(=O)Nc2sc3c(c2C(=O)Nc2ccccn2)CCCCC3)cc1OC [Compound 31, 2-(3,4-Dimethoxybenzamido)-N-(pyridin-2-yl)-5,6,7,8-tetrahydro-4H-cyclohepta[b]thiophene-3-carboxamide]",> 50,4.01 ± 1,Effect on Tm of the RT heterodimer (HIV-1 RT heterodimer): no decreased Tm; CC50 at 5 days [3]: 6.24 µM; IC50 [4]: 20 ± 7 µM; Fold increase of IC50 versus the regular assay [4]: 5 fold; Fold decrease in RNase H potency relative to compound 33 ([2]; O-methylated hydroxyl groups vs catechol 33): 5 fold; Inhibition of HIV-1 (IIIB) replication (HIV-1 (IIIB strain)): unable to affect viral replication; Inhibition of HIV-2 (ROD) replication (HIV-2 (ROD strain)): unable to affect viral replication
"Nc1ccccc1C(=O)Nc1sc2c(c1C(=O)Nc1ccccn1)CCCCC2 [Compound 26, 2-(2-Aminobenzamido)-N-(pyridin-2-yl)-5,6,7,8-tetrahydro-4H-cyclohepta[b]thiophene-3-carboxamide]",–,14.9 ± 4.1,–
"COc1ccc(C(=O)Nc2sc3c(c2C(=O)Nc2ccccn2)CCCCC3)c(OC)n1 [Compound 30, 2,6-Dimethoxy-N-(3-(pyridin-2-ylcarbamoyl)-5,6,7,8-tetrahydro-4H-cyclohepta[b]thiophen-2-yl)nicotinamide]",–,21.5 ± 1,–
"CC(=O)Nc1sc2c(c1C(=O)Nc1ccccn1)CCCCC2 [Compound 35, 2-Acetamido-N-(pyridin-2-yl)-5,6,7,8-tetrahydro-4H-cyclohepta[b]thiophene-3-carboxamide]",–,> 100,–
"COc1ccc(C(=O)Nc2sc3c(c2C(=O)Nc2ccccn2)CCCCC3)c(O)n1 [Compound 32, 2-Hydroxy-6-methoxy-N-(3-(pyridin-2-ylcarbamoyl)-5,6,7,8-tetrahydro-4H-cyclohepta[b]thiophen-2-yl)nicotinamide]",–,15.1 ± 1.3,–
"Nc1ccc(C(=O)Nc2sc3c(c2C(=O)Nc2ccccn2)CCCCC3)cc1 [Compound 27, 2-(4-Aminobenzamido)-N-(pyridin-2-yl)-5,6,7,8-tetrahydro-4H-cyclohepta[b]thiophene-3-carboxamide]",–,21.4 ± 4.4,–
"Cc1ccccc1C(=O)Nc1sc2c(c1C(=O)Nc1ccccn1)CCCCC2 [Compound 29, 2-(2-Methylbenzamido)-N-(pyridin-2-yl)-5,6,7,8-tetrahydro-4H-cyclohepta[b]thiophene-3-carboxamide]",–,18.3 ± 1.8,–
"O=C(Nc1sc2c(c1C(=O)Nc1ccccc1F)CCCCC2)c1ccccn1 [Compound 37, N-(3-((2-Fluorophenyl)carbamoyl)-5,6,7,8-tetrahydro-4H-cyclohepta[b]thiophen-2-yl)picolinamide]",–,13.7 ± 1.6,–
"O=C(Nc1sc2c(c1C(=O)Nc1ccccn1)CCCCC2)c1ccccc1Br [Compound 23, 2-(2-Bromobenzamido)-N-(pyridin-2-yl)-5,6,7,8-tetrahydro-4H-cyclohepta[b]thiophene-3-carboxamide]",> 50,4.57 ± 0.01,–
"O=C(Cc1ccccc1F)Nc1sc2c(c1C(=O)Nc1ccccn1)CCCCC2 [Compound 36, 2-(2-(2-Fluorophenyl)acetamido)-N-(pyridin-2-yl)-5,6,7,8-tetrahydro-4H-cyclohepta[b]thiophene-3-carboxamide]",> 50,–,–
"O=C(Nc1sc2c(c1C(=O)Nc1ccccn1)CCCCC2)c1ccc(O)c(O)c1 [Compound 33, 2-(3,4-Dihydroxybenzamido)-N-(pyridin-2-yl)-5,6,7,8-tetrahydro-4H-cyclohepta[b]thiophene-3-carboxamide]",20.9 ± 1.7,–,Effect on Tm of the RT heterodimer (HIV-1 RT heterodimer): no decreased Tm; CC50 at 5 days [3]: 30.7 µM; IC50 [4]: 5.3 ± 0.2 µM; Fold increase of IC50 versus the regular assay [4]: 5 fold; Inhibition of HIV-1 (IIIB) replication (HIV-1 (IIIB strain)): unable to affect viral replication; Inhibition of HIV-2 (ROD) replication (HIV-2 (ROD strain)): unable to affect viral replication
